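These data come from cells grown in 96-well plates and exposed to compound for 48 hours at five concentrations. Abbreviation: GI50, concentration required for 50% inhibition of growth.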 Active and inactive are the calls of the source. No stated cut-off is given here; in the data, active = GI50 up to about 1.1 µM and inactive = higher.
Legend:
Experiment in all cases: NCI anticancer screen, dose series, 48 h
[1] = system: DLD-1
[2] = system: DMS-114
[3] = system: HOP-18
[4] = system: KM-20L2
[5] = system: LXFL 529
[6] = system: M19-MEL
[7] = system: RXF 631
[8] = system: SNB-78
[9] = system: XF498

| Compound | GI50 [1] | GI50 [2] | GI50 [3] | GI50 [4] | GI50 [5] | GI50 [6] | GI50 [7] | GI50 [8] | GI50 [9] |
| --- | --- | --- | --- | --- | --- | --- | --- | --- | --- |
| Cc1nc(N)c(-c2ccccc2)s1 | > 82.6 µM (inactive) | > 76 µM (inactive) | > 100 µM (inactive) | > 70.8 µM (inactive) | > 100 µM (inactive) | > 100 µM (inactive) | > 100 µM (inactive) | 68.4 µM (inactive) | 34.6 µM (inactive) |
| CN(C)/C=N/c1nc2c(ncn2C2OC(CO)C(O)C2O)c(=O)[nH]1 (centres undefined) | > 100 µM (inactive) | > 100 µM (inactive) | > 100 µM (inactive) | > 100 µM (inactive) | > 100 µM (inactive) | > 100 µM (inactive) | > 100 µM (inactive) | > 100 µM (inactive) | > 100 µM (inactive) |
| COc1ccc(NC(=O)C/C(C)=N\N=C(N)N)c([N+](=O)[O-])c1 | 34.5 µM (inactive) | > 100 µM (inactive) | > 100 µM (inactive) | > 100 µM (inactive) | > 100 µM (inactive) | > 100 µM (inactive) | – | > 100 µM (inactive) | > 100 µM (inactive) |
| CCCCCCN(CCCCCC)C(=O)Cc1c2n(c3ccccc13)Cc1ccccc1-2 | 33.7 µM (inactive) | 28.6 µM (inactive) | > 100 µM (inactive) | > 100 µM (inactive) | 37.4 µM (inactive) | 60.3 µM (inactive) | – | 71.8 µM (inactive) | – |
| CCC/C(=N\NC(=S)N1CC2CCC(CC2)C1)c1ccccn1 | 0.0118 µM (active) | – | 0.149 µM (active) | 0.0145 µM (active) | 0.0113 µM (active) | – | – | 0.344 µM (active) | 0.00543 µM (active) |
| Cc1cc(C)nc(NS(=O)(=O)c2ccc(Nc3c4ccccc4nc4c(C(=O)N5CCN(CCO)CC5)ccc(Cl)c34)cc2)n1 | – | 72.3 µM (inactive) | – | 60.8 µM (inactive) | – | 76 µM (inactive) | 85.5 µM (inactive) | > 100 µM (inactive) | – |
| C#CCNC(=O)NCCCCC(NC(C)=O)C(=O)NCc1ccccc1 (centres undefined) | > 100 µM (inactive) | > 100 µM (inactive) | > 100 µM (inactive) | > 100 µM (inactive) | > 100 µM (inactive) | > 100 µM (inactive) | > 100 µM (inactive) | > 100 µM (inactive) | 0.101 µM (active) |
| CCN(CC)CC(O)CNc1ccc(NCC(O)CCl)c2c1C(=O)c1ccccc1C2=O (centres undefined) | 8.83 µM (inactive) | – | > 10 µM (inactive) | 4.68 µM (inactive) | 1.85 µM (inactive) | 6.82 µM (inactive) | – | 6.7 µM (inactive) | 13.4 µM (inactive) |
| CC1OC(OP(=O)(OCc2ccccc2)OCc2ccccc2)C(OC(=O)c2ccccc2)C(OC(=O)c2ccccc2)C1I (centres undefined) | 50 µM (inactive) | – | – | 51.2 µM (inactive) | 41.8 µM (inactive) | 61.5 µM (inactive) | – | – | > 100 µM (inactive) |
| Cc1cc(C)c(-c2noc(-c3ccc(Cl)cc3)c2C2=NCCN2)c(C)c1 | 22.4 µM (inactive) | – | 1.17 µM (inactive) | 22.2 µM (inactive) | 19.9 µM (inactive) | 35.8 µM (inactive) | 43.3 µM (inactive) | 20.1 µM (inactive) | 21.4 µM (inactive) |
| CCCN(CCC)C(=O)C(=O)c1c(N)[nH]n(-c2ccccc2)c1=O | 78.3 µM (inactive) | > 100 µM (inactive) | > 100 µM (inactive) | > 100 µM (inactive) | 66.2 µM (inactive) | > 100 µM (inactive) | > 100 µM (inactive) | > 100 µM (inactive) | > 100 µM (inactive) |
| c1ccc2c(c1)SC(=C1Sc3ccccc3S1)S2 | > 100 µM (inactive) | 69.8 µM (inactive) | > 100 µM (inactive) | > 100 µM (inactive) | > 100 µM (inactive) | > 100 µM (inactive) | > 100 µM (inactive) | > 100 µM (inactive) | > 100 µM (inactive) |
| O=C(/C=C/c1ccccc1F)c1ccc([N+](=O)[O-])cc1 | 16.6 µM (inactive) | 17.1 µM (inactive) | 57.5 µM (inactive) | 30.8 µM (inactive) | 16.6 µM (inactive) | 22.2 µM (inactive) | – | 37.2 µM (inactive) | 19.6 µM (inactive) |

Source: ChEMBL document CHEMBL1201862, “PubChem BioAssay data set” (2004)
